# Measured values from patent publication US8377948B2, “Antitumor agents and methods of their use” (The Ohio State University Research Foundation, priority 2004, dated 2013).
# Tested on: PC-3 cells
# Test: MTT cell viability assay, PC-3 cells in 10% FBS medium
# Assay type: cell-based, human
# Details: Homo sapiens, PC-3, 48 h, RPMI 1640 with 10% FBS, means ± S.D. (n = 6)
# Protocol: PC-3 (p53−/−) human androgen-nonresponsive prostate cancer cells were purchased from the American Type Tissue Collection (Manassas, Va.). Cells were cultured in RPMI 1640 medium (Gibco, Grand Island, N.Y.) supplemented with 10% fetal bovine serum (FBS; Gibco) at 37° C. in a humidified incubator containing 5% CO2.
# Effect of the test agent on cell viability was assessed by the MTT {[3-(4,5-dimethylthiazol-2-yl)-2,5-diphenyl-2H-tetrazolium bromide]} assay in 96-well, flat-bottomed plates, in which 8,000 PC-3 or DU-145 cells/well were seeded. Cells were exposed to the test agent at the indicated concentrations, in six replicates, in 10% FBS-supplemented-RPMI-1640 medium at 37° C. in 5% CO2 for 48 hr. The medium was removed and replaced by 150 μL of 0.5 mg/mL of MTT in RPMI-1640 medium, and cells were incubated in the CO2 incubator at 37° C. for 2 h. Supernatants were removed from the wells, and the reduced MTT dye was solubilized with 200 μL/well DMSO. Absorbance was determined on a plate reader at 570 nm.
# All compounds were evaluated for their ability to induce apoptotic death in human androgen-independent PC-3 prostate cancer in RPMI 1640 medium containing 10% fetal bovine serum (FBS). For representative compounds tested in DU-145 and LNCaP prostate cancer cells, the IC50 values for inhibiting cell proliferation were similar in these three cell lines irrespective of differences in androgen sensitivity, PTEN mutation, the functional status of p53 and Rb, and other biomarkers.
row,SMILES,IC50 [µM]
1,"COc1cc2nc(N3CCN(S(=O)(=O)c4ccc5ccccc5c4)CC3)nc(N)c2cc1OC [Compound 31, 6,7-Dimethoxy-2-[4-(naphthalene-2-sulfonyl)-piperazin-1-yl]-quinazolin-4-yl-amino]",15 ± 2
2,"COc1cc2nc(N3CCN(C(=O)c4ccc([N+](=O)[O-])cc4)CC3)nc(N)c2cc1OC [Compound 5, [4-(4-Amino-6,7-dimethoxy-quinazolin-2-yl)-piperazin-1-yl]-(4-nitro-phenyl)-methanone]",75 ± 11
3,"CC(C)Oc1cc2nc(N3CCN(S(=O)(=O)c4ccc(-c5ccccc5)cc4)CC3)nc(N)c2cc1OC(C)C [Compound 45, 2-[4-(Biphenyl-4-sulfonyl)-piperazin-1-yl]-6,7-diisopropoxy-quinazolin-4-yl-amine]",24
4,"COc1cc2nc(N3CCN(S(=O)(=O)c4ccc(-c5ccc(C(F)(F)F)cc5)cc4)CC3)nc(N)c2cc1OC [Compound 37, 6,7-Dimethoxy-2-[4-(4′-trifluoromethyl-biphenyl-4-sulfonyl)-piperazin-1-yl]-quinazolin-4-yl-amine]",3.3 ± 0.3
5,"COc1cc2nc(N3CCN(C(=O)c4ccc(Cl)cc4)CC3)nc(N)c2cc1OC [Compound 1, [4-(4-Amino-6,7-dimethoxy-quinazolin-2-yl)-piperazin-1-yl]-(4-chloro-phenyl)-methanone]",60 ± 8
6,"COc1cc2nc(N3CCN(S(=O)(=O)c4ccc(I)cc4)CC3)nc(N)c2cc1OC [Compound 13, 2-[4-(4-Iodo-benzenesulfonyl)-piperazin-1-yl]-6,7-dimethoxy-quinazolin-4-yl-amine]",15 ± 2
7,"COc1cc2nc(N3CCN(C(=O)c4ccc(C(F)(F)F)cc4)CC3)nc(N)c2cc1OC [Compound 10, [4-(4-Amino-6,7-dimethoxy-quinazolin-2-yl)-piperazin-1-yl]-(4-trifluoromethyl-phenyl)-methanone]",> 100
8,"CCCCc1ccc(-c2ccc(S(=O)(=O)N3CCN(c4nc(N)c5cc(OC)c(OC)cc5n4)CC3)cc2)cc1 [Compound 39, 2-[4-(4′-Butyl-biphenyl-4-sulfonyl)-piperazin-1-yl]-6,7-dimethoxy-quinazolin-4-yl-amine]",3.4 ± 0.2
9,"COc1cc2nc(N3CCN(S(=O)(=O)c4ccc(C(C)(C)C)cc4)CC3)nc(N)c2cc1OC [Compound 23, 2-[4-(4-tert-Butyl-benzenesulfonyl)-piperazin-1-yl]-6,7-dimethoxy-quinazolin-4-ylamine]",4 to 5
10,"COc1cc2nc(N3CCN(C(=O)OCc4ccccc4)CC3)nc(N)c2cc1OC [Compound 3, 4-(4-Amino-6,7-dimethoxy-quinazolin-2-yl)-piperazine-1-carboxylic acid benzyl ester]",63 ± 6
11,"COc1cc2nc(N3CCN(S(=O)(=O)c4ccc(Cl)cc4)CC3)nc(N)c2cc1OC [Compound 11, 2-[4-(4-Chloro-benzonesulfonyl)-piperazin-1-yl]-6,7-dimethoxy-quinazolin-4-yl-amine]",23 ± 3
12,"COc1cc2nc(N3CCN(S(=O)(=O)c4cc(Cl)ccc4Cl)CC3)nc(N)c2cc1OC [Compound 26, 2-[4-(2,5-Dichloro-benzenesulfonyl)-piperazin-1-yl]-6,7-dimethoxy-quinazolin-4-ylamine]",60 ± 7
13,"COc1cc2nc(N3CCN(S(=O)(=O)c4cccc5ccccc45)CC3)nc(N)c2cc1OC [Compound 30, 6,7-Dimethoxy-2-[4-(naphthalene-1-sulfonyl)-piperazin-1-yl]-quinazolin-4-yl-amine]",14 ± 2
14,"COc1ccc(C(=O)N2CCN(c3nc(N)c4cc(OC)c(OC)cc4n3)CC2)cc1OC [Compound 6, [4-(4-Amino-6,7-dimethoxy-quinazolin-2-yl)-piperazin-1-yl]-(3,4-dimethoxy-phenyl)-methanone]",71 ± 8
15,"COc1cc2nc(N3CCN(S(=O)(=O)c4cccc5c(N(C)C)cccc45)CC3)nc(N)c2cc1OC [Compound 32, 2-[4-(5-Dimethylamino-naphthalene-1-sulfonyl)-piperazin-1-yl]-6,7-dimethoxy-quinazolin-4-ylamine]",29 ± 4
16,"COc1cc2nc(N3CCN(C(=O)c4ccc(N)cc4)CC3)nc(N)c2cc1OC [Compound 8, [4-(4-Amino-6,7-dimethoxy-quinazolin-2-yl)-piperazin-1-yl]-(4-amino-phenyl)-methanone]",> 100

row,SMILES,IC50 [µM]
1,"COc1cc2nc(N3CCN(S(=O)(=O)c4ccc(OC(F)(F)F)cc4)CC3)nc(N)c2cc1OC [Compound 21, 6,7-Dimethoxy-2-[4-(4-trifluoromethoxy-benzenesulfonyl)-piperazin-1-yl]-quinazolin-4-yl-amine]",25 ± 2
2,"COc1cc2nc(N3CCN(S(=O)(=O)c4ccc(C(F)(F)F)cc4)CC3)nc(N)c2cc1OC [Compound 19, 6,7-Dimethoxy-2-[4-(4-trifluoromethyl-benzenesulfonyl)-piperazin-1-yl]-quinazolin-4-yl-amine]",27 ± 3
3,"COc1cc2nc(N3CCN(S(=O)(=O)c4cccc(C(=O)O)c4)CC3)nc(N)c2cc1OC [Compound 24, 3-[4-(4-Amino-6,7-dimethoxy-quinazolin-2-yl)-piperazine-1-sulfonyl]-benzoic acid]",53 ± 4
4,"COc1cc2nc(N3CCN(S(=O)(=O)c4ccc([N+](=O)[O-])cc4)CC3)nc(N)c2cc1OC [Compound 17, 6,7-Dimethoxy-2-[4-(4-nitro-benzenesulfonyl)-piperazin-1-yl]-quinazolin-4-yl-amine]",36 ± 3
5,"COc1cc2nc(N3CCN(S(=O)(=O)c4ccc(-c5cc6ccccc6c6ccccc56)cc4)CC3)nc(N)c2cc1OC [Compound 35, 6,7-Dimethoxy-2-[4-(4-phenanthren-9-yl-benzenesulfonyl)-piperazin-1-yl]-quinazolin-4-ylamine]",4 to 5
6,"COc1cc2nc(N3CCN(S(=O)(=O)c4cccc([N+](=O)[O-])c4)CC3)nc(N)c2cc1OC [Compound 16, 6,7-Dimethoxy-2-[4-(3-nitro-benzenesulfonyl)-piperazin-1-yl]-quinazolin-4-yl-amine]",32 ± 5
7,"COc1cc2nc(N3CCN(C(=O)c4ccc(C(C)(C)C)cc4)CC3)nc(N)c2cc1OC [Compound 9, [4-(4-Amino-6,7-dimethoxy-quinazolin-2-yl)-piperazin-1-yl]-(4-tert-butyl-phenyl)-methanone]",47 ± 6
8,"COc1cc2nc(N3CCN(C(=O)c4cccc(C#N)c4)CC3)nc(N)c2cc1OC [Compound 4, 3-[4-(4-Amino-6,7-dimethoxy-quinazolin-2-yl)-piperazine-1-carbonyl]-benzo-nitrile]",82 ± 5
9,"COc1cc2nc(N3CCN(S(=O)(=O)c4ccc(C)cc4)CC3)nc(N)c2cc1OC [Compound 18, 6,7-Dimethoxy-2-[4-(toluene-4-sulfonyl)-piperazin-1-yl]-quinazolin-4-ylamine]",30 ± 2
10,"COc1cc2nc(N3CCN(S(=O)(=O)c4ccc(S(C)(=O)=O)cc4)CC3)nc(N)c2cc1OC [Compound 22, 2-[4-(4-Methanesulfonyl-benzenesulfonyl)-piperazin-1-yl]-6,7-dimethoxy-quinazolin-4-ylamine]",17 ± 3
11,"COc1cc2nc(N3CCN(S(=O)(=O)c4cc(C(=O)O)c(Cl)cc4F)CC3)nc(N)c2cc1OC [Compound 28, 5-[4-(4-Amino-6,7-dimethoxy-quinazolin-2-yl)-piperazine-1-sulfonyl]-2-chloro-4-fluoro-benzoic acid]",56 ± 4
12,"COc1cc2nc(N3CCN(S(=O)(=O)c4ccc(-c5ccc(C)cc5)cc4)CC3)nc(N)c2cc1OC [Compound 36, 6,7-Dimethoxy-2-[4-(4′-methyl-biphenyl-4-sulfonyl)-piperazin-1-yl]-quinazolin-4-yl-amine]",3.4 ± 0.4
13,"COc1ccc(S(=O)(=O)N2CCN(c3nc(N)c4cc(OC)c(OC)cc4n3)CC2)cc1 [Compound 20, 6,7-Dimethoxy-2-[4-(4-methoxy-benzenesulfonyl)-piperazin-1-yl]-quinazolin-4-yl-amine]",39 ± 4
14,"COc1cc2nc(N3CCN(S(=O)(=O)c4ccc(Cl)s4)CC3)nc(N)c2cc1OC [Compound 14, 2-[4-(5-Chloro-thiophene-2-sulfonyl)-piperazin-1-yl]-6,7-dimethoxy-quinazolin-4-ylamine]",25 ± 3
15,"COc1cc2nc(N3CCN(S(=O)(=O)c4cc(C(=O)O)c(Cl)cc4Cl)CC3)nc(N)c2cc1OC [Compound 29, 5-[4-(4-Amino-6,7-dimethoxy-quinazolin-2-yl)-piperazine-1-sulfonyl]-2,4-dichloro-benzoic acid]",52 ± 6
16,"C=CCOc1cc2nc(N3CCN(S(=O)(=O)c4ccc(-c5ccccc5)cc4)CC3)nc(N)c2cc1OCC=C [Compound 43, 6,7-Bis-allyloxy-2-[4-(biphenyl-4-sulfonyl)-piperazin-1-yl]-quinazolin-4-ylamine]",3.3 ± 0.4

# Same assay, conditions: RPMI 1640 with 10% FBS, 48 h, means ± S.D. (n = 6)
row,SMILES,IC50 [µM]
1,"COc1cc2nc(N3CCN(S(=O)(=O)c4ccc(C(C)(C)C)cc4)CC3)nc(N)c2cc1OC [Compound 23, 2-[4-(4-tert-Butyl-benzenesulfonyl)-piperazin-1-yl]-6,7-dimethoxy-quinazolin-4-ylamine]",4.1 ± 0.7
2,"COc1cc2nc(N3CCN(S(=O)(=O)c4c(C(C)C)cc(C(C)C)cc4C(C)C)CC3)nc(N)c2cc1OC [Compound 34, 6,7-Dimethoxy-2-[4-(2,4,6-triisopropyl-benzonesulfonyl)-piperazin-1-yl]-quinazolin-4-yl-amine]",24 ± 3
3,"COc1cc2nc(N3CCN(S(=O)(=O)c4ccc(-c5cc6ccccc6c6ccccc56)cc4)CC3)nc(N)c2cc1OC [Compound 35, 6,7-Dimethoxy-2-[4-(4-phenanthren-9-yl-benzenesulfonyl)-piperazin-1-yl]-quinazolin-4-ylamine]",5.2 ± 0.9
